No end group written: not given here.
Tests used:
[1] = test system: hippocampal slice cultures; assay: Aβ-induced cell death (EthD-1/calcein AM, % Death) in organotypic hippocampal slice cultures; type: cell-based, mouse
Experimental: Pups from C57B6/SJL mice were anaesthetized and decapitated at postnatal day 15. The brain was removed and placed in ice-cold dissecting medium (50% Minimum Essential Medium (Invitrogen, Carlsbad, Calif.), 50% Hank's Balanced Salt Solution (Invitrogen), 25 mM HEPES, and 36 mM glucose). Both hippocampi were dissected under a dissecting microscope and cut at 400 μm on a McIlwain tissue chopper. Slices were separated and placed on filter inserts with a 30 mm diameter and a 0.4 μm filter pore size (Millipore, Billerica, Mass.) held in 6-well culture plates. For the first 3 days, slices were kept in Neurobasal media with B-27 supplement, 1 mM glutamine, and 1% penicillin/streptomycin (Invitrogen). Subsequently, the media was changed every 3 days using media without antibiotics. Organotypic cultures were maintained in a humidified incubator at 37° C. in 5% O2 and 5% CO2 for 14 to 21 days.
(§1) Cell death and viability was determined on live slices using the fluorescent probes from Molecular Probes' Live/Dead Kit. After a 40 minute incubation in calcein AM (1:400) and ethidium homodimer (1:1000) in phosphate buffered saline, slices were visualized at 200× magnification with an inverted Nikon Diaphot 200 microscope using the Bio-Rad MRC-1024 Laser Scanning Confocal system (Hercules, Calif.). Random images of the neuronal fields were captured at the emission spectrum of each probe, and Scion Image software (Frederick, Md.) was used to quantify the number of live and dead cells. At least three areas including a neuronal field were imaged and used to determine the percent death for each slice. The percent death was calculated as the number of EthD-1 positive cells divided by the total number of EthD-1 and calcein AM positive cells.
β-amyloid1-42 and reverse Aβ (Aβ42-1) were obtained from BACHEM (Torrance, Calif.). These polypeptides were dissolved in 0.1% NH3OH at 222 μM. For treatments, Aβ was aggregated at 50 μM in Neurobasal media with B-27 supplement and 1 mM glutamine at 37° C. for 24 hours. Then, the slice culture media was removed, and the slices were treated with 1 mL of 25 μM or 50 μM Aβ, reverse Aβ, or vehicle for 24 hours. Human TTR (Calbiochem) or IGF-2 (Peprotech, Rocky Hill, N.J.) was added to slices together with the Aβ treatment at final concentrations of 3 μM (TTR) or 500 nM (IGF-2). sAPPα was prepared as described previously (Mattson et al., Neuron, 10:243-254 (1993)).
Unless otherwise stated, all sAPPα treatments were performed at 1 nM 48 hours prior to the addition of Aβ. Antibodies against TTR (C-20) or IGF-2 (F-20; 4 μg/mL; Santa Cruz) or sAPPα (6E10; 10 μg/mL; Chemicon) were added to slices together with the sAPPα treatment. Goat IgG (4 μg/mL; Santa Cruz) or mouse IgG1 (10 μg/mL; Chemicon) was added as a control. The 10 amino acid fragment of the carboxyl-terminal region of sAPPα (592-601 of APP695; SEVKMDAEFR; SEQ ID NO:1; Sigma) was added according to the same protocol for sAPPα.
SiRNA's were created based on the mouse mRNA sequences using the Ambion Silencer siRNA Construction Kit (Austin, Tex.). Several siRNA's were created by in vitro transcription for each silenced gene. Transfection was performed for 4 hours at 37° C. prior to vehicle or sAPPα treatment using 25 nM siRNA combined with the polyamines in the Ambion siPORT Amine Transfection Agent. Transfections were performed in Neurobasal media with 1 mM glutamine (Invitrogen). The successful mRNA target sequences are as follows, TTR: 5′-[…]-3′ (SEQ ID NO:16) and 5′-[…]-3′ (SEQ ID NO:17); IGF-2: 5′-AA-GGGGATAGAGATGTGAGAG-3′ (SEQ ID NO:18) and 5′-AAATTATGTGGT-AATTCTGCA-3′ (SEQ ID NO:19); IGF-1R: 5′-[…]-3′ (SEQ ID NO:20) and 5′-[…]-3′ (SEQ ID NO:21).
β-amyloid1-42 and reverse Aβ (Aβ42-1) were obtained from BACHEM (Torrance, Calif.). These peptides were dissolved in 0.1% NH3OH at 222 μM. For treatments, Aβ was aggregated at 50 μM in Neurobasal media with B-27 supplement and 1 mM glutamine at 37° C. for 24 hours. […]

human cortical slices = assay: Aβ-induced cell death (EthD-1/calcein AM) in human organotypic cortical cultures; type: cell-based; conditions: for Protection against the Aβ-induced EthD-1 staining: FIG. 6C
Source text: Four patients with intractable epilepsy who had elected to undergo a temporal lobe resection were recruited for this study. […] However, the overlying temporal cortex is normal. The age of the subjects ranged from 20 to 49. Brain tissue was obtained with informed consent from all patients.
Brain tissue was removed in large, intact pieces by electrocautery. Tissue obtained from the temporal cortex was approximately 3 cm×2 cm×1.5-2 cm. Immediately following removal, the tissue was placed in ice-cold Neuregen-I media (Brainbits, Springfield, Ill.), a CO2 independent transport and holding medium, and transported to a tissue culture laboratory. Meninges were removed before cutting the tissue with a scalpel to produce blocks about 0.5-1 cm^3 such that each gyrus was kept as intact as possible and the cortical layers were preserved. As described previously, incisions were made perpendicular to the longitudinal axis of the gyrus and along the white matter (Verwer et al., Exp. Gerontol., 38:167-172 (2003)). A vibratome was used to cut 400 μm thick slices at a plane perpendicular to the longitudinal axis of the gyrus. Thus, all cortical layers and a small amount of white matter were included in a slice. Alternately, small tissue pieces, which were usually obtained from the hippocampus, were cut at 400 μm using a McIlwain tissue chopper. No more than 2 slices were placed on a filter insert with a 30 mm diameter and a 0.4 μm filter pore size (Millipore, Billerica, Mass.) held in 6-well culture plates. For the first 12 hours, slices were kept in 1-1.2 mL Neurobasal media with B-27 supplement, 0.5 mM glutamine, and 1% penicillin/streptomycin (Invitrogen). Subsequently, the media was changed every 2 days using 1 mL of media without antibiotics. Organotypic cultures were maintained in a humidified incubator at 37° C. in 5% O2, 5% CO2, and 90% N for 4 to 28 days.
as §1, with “images” for “images of the neuronal fields”, “areas” for “areas including a neuronal field”
β-amyloid1-42 and reverse Aβ (Aβ42-1) were obtained from BACHEM (Torrance, Calif.). These peptides were dissolved in 0.1% NH3OH at 222 μM. For treatments, Aβ or reverse Aβ was aggregated at 50 μM in Neurobasal media with B-27 supplement and 0.5 mM glutamine at 37° C. for 24 hours. Then, the slice culture media was removed, and the slices were treated with 1 mL of 25 μM or 50 μM Aβ, reverse Aβ, or vehicle for 24 hour. Human TTR (Calbiochem) was added to slices together with the Aβ treatment at final concentrations of 0.03, 0.3, and 3 μM TTR. sAPPα was obtained from Sigma (St. Louis, Mo.). Unless otherwise stated, all sAPPα treatments were performed at 1 nM 48 hours prior to the addition of Aβ. The 10 amino acid fragment of the carboxyl-terminal region of sAPPα (592-601 of APP695; SEVKMDAEFR was added according to the same protocol for sAPPα. Because a variable amount of tissue was obtained from each patient, not all treatments were performed on all patients.

[2] = 48 h prior to 25 μM Aβ (24 h), FIG. 12B, 1 nM, final concentration of 1 mM
[3] = 1 nM 48 hours prior to 25 μM Aβ (24 hours), FIG. 7
[4] = 1 nM 48 h prior to 25 μM Aβ (24 h), FIG. 12A

Substance | Protection against Aβ-induced death (% Death) [1, 2] | Protection against Aβ-induced death (% Death) [1, 3] | other results
(dD)AEF | do not significantly protect | – | –
D(dA)EF | do not significantly protect | – | –
DAE(dF) | do not significantly protect | – | –
EADF-amide (EADF-NH2) [EADF (SEQ ID NO:5)-amide, aspartic acid and glutamic acid switched and an amide group attached to the COOH-terminus] | significantly protects | – | –
EVKMDAEFR [fragment with the serine eliminated] | – | significantly protected | –
R(9)-DAEF (RRRRRRRRRDAEF) [9 arginines added to the NH2-terminal end of the tetrapeptide] | – | – | Protection against Aβ-induced death (% Death) [1, 4]: significantly protected
SEVKMDAE [fragment with both arginine and phenylalanine eliminated] | – | reversed the protection | –
SEVKMDAEF [10 amino acid fragment with the carboxyl arginine eliminated] | – | protection was maintained | –
VKMDAEFR [fragment with the serine and glutamic acid eliminated] | – | significantly protected | –
acetyl-DAEF (Ac-DAEF) [DAEF with the NH2-terminal end acetylated] | – | – | Protection against Aβ-induced death (% Death) [1, 4]: did not protect to the same degree as the unmodified tetrapeptide; Protection against Aβ-induced death (% Death) ([1]; 1 nM 48 h prior to 25 μM Aβ (24 h), FIG. 12A, listed as Acetylated DAEF): significant protection
acetyl-EADF (Ac-EADF) | does not | – | –
insulin-like growth factor 2 [IGF-2] | – | – | Protection against Aβ-induced death (% Death) ([1]; 500 nM added together with Aβ, FIG. 4A): partially protected
transthyretin [TTR] | – | – | Protection against Aβ-induced death (% Death) ([1]; 3 μM added together with Aβ, FIG. 4A): completely protected; Protection against the Aβ-induced EthD-1 staining (human cortical slices; co-treatment with 0.03 μM): not; Protection against the Aβ-induced EthD-1 staining (human cortical slices; co-treatment with 0.3 μM): protected; Protection against the Aβ-induced EthD-1 staining (human cortical slices; co-treatment with 3 μM): protected; Concentrations that protect against Aβ toxicity (human cortical slices; human cortical slices, co-treatment with Aβ): ≥ 0.3 µM

Reference: US20090176714A1, “METHOD OF REDUCING THE EFFECTS OF ABeta AND COMPOSITIONS THEREFORE” (priority 2004, published 2009)
